Assay results reported in article PMC9787943, “Calcium-Dependent Interplay of Lithium and Tricyclic Antidepressants, Amitriptyline and Desipramine, on N-methyl-D-aspartate Receptors” (International Journal of Molecular Sciences, 2022).
Like-named read-outs stand apart in the source and are kept apart here.

Tested on: T1, native di- and triheteromeric NMDARs composed of GluN1, GluN2A, and GluN2B subunits
T1 construct: gene Grin1; native receptors in primary cultured cortical neurons (from fetal brains of 17-day pregnant rats, 10-14 days in culture); mixture of di- and triheteromers, heterotetramers with two GluN1 (known biology)
Assay: whole-cell patch clamp of cultured neurons, NMDA-elicited currents
Assay type: cell-based, Rattus norvegicus
Details: Na+ solution without Li+, 100 μM NMDA + 30 μM glycine, -70 mV, pH 7.2-7.4, 22-25 °C, no BAPTA, mode: Ca2+-dependent desensitization (paper suggests indirect, via NCX) plus open-channel bloc
Excerpt: whole-cell patch clamp of cultured neurons, NMDA-elicited currents on native di- and triheteromeric NMDARs composed of GluN1, GluN2A, and GluN2B subunits

SMILES | IC50 (2 mM Ca2+, read-out: IC50 ATL) [µM] | IC50 (1 mM Ca2+, read-out: IC50 DES) [µM]
CN(C)CCC=C1c2ccccc2CCc2ccccc21 [Amitriptyline] | 5 ± 1 | 
CNCCCN1c2ccccc2CCc2ccccc21 [Desipramine] |  | 1.75 ± 0.17
